Test results from ChEMBL document CHEMBL1201862, “PubChem BioAssay data set” (2004).
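All cell lines were grown in 96-well plates and treated with compound for 48 hours. The concentration for 50% growth inhibition is given as GI50.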 The source made the active and inactive calls. Rule as the data show it: active = GI50 up to about 1.1 µM and inactive = higher.

Experiments:
Assay in all cases: NCI-60 cell line screen, 48 h
Malme-3M = test system: Malme-3M
U-251 = test system: U-251
CAKI-1 = test system: CAKI-1
OVCAR-8 = test system: OVCAR-8
COLO 205 = test system: COLO 205
NCI-H226 = test system: NCI-H226
Hs-578T = test system: Hs-578T
BT-549 = test system: BT-549
HT-29 = test system: HT-29
786-0 = test system: 786-0
A498 = test system: A498
KM12 = test system: KM12
M14 = test system: M14
SF-539 = test system: SF-539
MDA-MB-435 = test system: MDA-MB-435
LOX IMVI = test system: LOX IMVI
DU-145 = test system: DU-145
SW-620 = test system: SW-620
IGROV-1 = test system: IGROV-1
SK-MEL-28 = test system: SK-MEL-28
SF-268 = test system: SF-268
RPMI-8226 = test system: RPMI-8226
EKVX = test system: EKVX
OVCAR-3 = test system: OVCAR-3
MCF7 = test system: MCF7
HCC 2998 = test system: HCC 2998
SF-295 = test system: SF-295
HCT-15 = test system: HCT-15
T47D = test system: T47D
SNB-19 = test system: SNB-19
SK-MEL-2 = test system: SK-MEL-2
SR = test system: SR
HOP-62 = test system: HOP-62
HOP-92 = test system: HOP-92
OVCAR-4 = test system: OVCAR-4
HCT-116 = test system: HCT-116
RXF 393 = test system: RXF 393
A549 = test system: A549
SK-MEL-5 = test system: SK-MEL-5
MDA-MB-231 = test system: MDA-MB-231
K562 = test system: K562
MDA-N = test system: MDA-N
ACHN = test system: ACHN
UO-31 = test system: UO-31
NCI/ADR-RES = test system: NCI/ADR-RES
CCRF-CEM = test system: CCRF-CEM
SK-OV-3 = test system: SK-OV-3
UACC-257 = test system: UACC-257
NCI-H460 = test system: NCI-H460
OVCAR-5 = test system: OVCAR-5
NCI-H23 = test system: NCI-H23
PC-3 = test system: PC-3
NCI-H522 = test system: NCI-H522
MOLT-4 = test system: MOLT-4
SNB-75 = test system: SNB-75
TK-10 = test system: TK-10
HL-60 = test system: HL-60
SN12C = test system: SN12C

## Nc1nc(N)c2cc(-c3ccccc3)cnc2n1
Malme-3M
  GI50: 8.99 µM (inactive)
U-251
  GI50: 15.1 µM (inactive)
CAKI-1
  GI50: 16 µM (inactive)
OVCAR-8
  GI50: 15.4 µM (inactive)
COLO 205
  GI50: 14.3 µM (inactive)
NCI-H226
  GI50: 16.5 µM (inactive)
Hs-578T
  GI50: 20.2 µM (inactive)
BT-549
  GI50: 16.6 µM (inactive)
HT-29
  GI50: 8.55 µM (inactive)
786-0
  GI50: 9.89 µM (inactive)
A498
  GI50: 14.9 µM (inactive)
KM12
  GI50: 16.5 µM (inactive)
M14
  GI50: 12.9 µM (inactive)
SF-539
  GI50: 14.7 µM (inactive)
MDA-MB-435
  GI50: > 10 µM (inactive)
LOX IMVI
  GI50: 12.4 µM (inactive)
DU-145
  GI50: > 10 µM (inactive)
SW-620
  GI50: 9.84 µM (inactive)
IGROV-1
  GI50: 12.9 µM (inactive)
SK-MEL-28
  GI50: 17.7 µM (inactive)
SF-268
  GI50: 2.75 µM (inactive)
RPMI-8226
  GI50: 16.6 µM (inactive)
EKVX
  GI50: 16.9 µM (inactive)
OVCAR-3
  GI50: 18.2 µM (inactive)
MCF7
  GI50: 16.3 µM (inactive)
HCC 2998
  GI50: 33 µM (inactive)
SF-295
  GI50: 17 µM (inactive)
HCT-15
  GI50: 27.4 µM
T47D
  GI50: 36.8 µM (inactive)
SNB-19
  GI50: 18.2 µM (inactive)
SK-MEL-2
  GI50: 33 µM (inactive)
SR
  GI50: 6.18 µM (inactive)
HOP-62
  GI50: 17 µM (inactive)
HOP-92
  GI50: 12.2 µM (inactive)
OVCAR-4
  GI50: 13.9 µM (inactive)
HCT-116
  GI50: 4.66 µM (inactive)
RXF 393
  GI50: 8.65 µM (inactive)
A549
  GI50: 9.44 µM (inactive)
SK-MEL-5
  GI50: 10 µM (inactive)
MDA-MB-231
  GI50: 7.89 µM (inactive)
K562
  GI50: 3.36 µM (inactive)
MDA-N
  GI50: 9.86 µM (inactive)
ACHN
  GI50: 12.9 µM (inactive)
UO-31
  GI50: 13 µM (inactive)
NCI/ADR-RES
  GI50: 24.4 µM (inactive)
CCRF-CEM
  GI50: 20.1 µM (inactive)
SK-OV-3
  GI50: 81.1 µM (inactive)
UACC-257
  GI50: 14.2 µM (inactive)
NCI-H460
  GI50: 10.8 µM (inactive)
OVCAR-5
  GI50: 14.6 µM (inactive)
NCI-H23
  GI50: 12.9 µM (inactive)
PC-3
  GI50: 8 µM (inactive)
NCI-H522
  GI50: 21.6 µM (inactive)
MOLT-4
  GI50: 9.89 µM (inactive)
SNB-75
  GI50: 3.61 µM (inactive)
TK-10
  GI50: 16.3 µM (inactive)
HL-60
  GI50: 13.3 µM (inactive)
SN12C
  GI50: 12.2 µM (inactive)

## NS(=O)(=O)c1ccc(/N=N/c2ccc(O)cc2)cc1
Malme-3M
  GI50: > 100 µM (inactive)
U-251
  GI50: 61 µM (inactive)
CAKI-1
  GI50: 20.9 µM (inactive)
OVCAR-8
  GI50: 45.3 µM (inactive)
COLO 205
  GI50: 46.3 µM (inactive)
NCI-H226
  GI50: 19.3 µM (inactive)
Hs-578T
  GI50: 61.8 µM (inactive)
BT-549
  GI50: 10.5 µM (inactive)
HT-29
  GI50: 50.2 µM (inactive)
786-0
  GI50: > 100 µM (inactive)
A498
  GI50: > 100 µM (inactive)
KM12
  GI50: 18.6 µM (inactive)
M14
  GI50: 33.2 µM (inactive)
SF-539
  GI50: 31.9 µM (inactive)
MDA-MB-435
  GI50: 11.3 µM (inactive)
LOX IMVI
  GI50: 6.61 µM (inactive)
DU-145
  GI50: 49.7 µM (inactive)
SW-620
  GI50: 44.5 µM (inactive)
IGROV-1
  GI50: 70 µM (inactive)
SK-MEL-28
  GI50: 21.4 µM (inactive)
SF-268
  GI50: 53.6 µM (inactive)
RPMI-8226
  GI50: 26.5 µM (inactive)
EKVX
  GI50: 20.7 µM (inactive)
OVCAR-3
  GI50: 66.4 µM (inactive)
MCF7
  GI50: 39.4 µM (inactive)
HCC 2998
  GI50: > 100 µM (inactive)
SF-295
  GI50: 29.9 µM (inactive)
HCT-15
  GI50: 59.2 µM
T47D
  GI50: 31.3 µM (inactive)
SNB-19
  GI50: 83.2 µM (inactive)
SK-MEL-2
  GI50: 32.7 µM (inactive)
SR
  GI50: 7.13 µM (inactive)
HOP-62
  GI50: 92 µM (inactive)
HOP-92
  GI50: 75.3 µM (inactive)
OVCAR-4
  GI50: 43.4 µM (inactive)
HCT-116
  GI50: 37.3 µM (inactive)
RXF 393
  GI50: > 100 µM (inactive)
A549
  GI50: 28.3 µM (inactive)
SK-MEL-5
  GI50: 28.8 µM (inactive)
MDA-MB-231
  GI50: 64.3 µM (inactive)
K562
  GI50: 7.46 µM (inactive)
MDA-N
  GI50: 61.9 µM (inactive)
ACHN
  GI50: 31.8 µM (inactive)
UO-31
  GI50: 12.6 µM (inactive)
NCI/ADR-RES
  GI50: 26.8 µM (inactive)
CCRF-CEM
  GI50: 62.1 µM (inactive)
SK-OV-3
  GI50: > 100 µM (inactive)
UACC-257
  GI50: 51.2 µM (inactive)
NCI-H460
  GI50: 31.1 µM (inactive)
OVCAR-5
  GI50: > 100 µM (inactive)
NCI-H23
  GI50: 55.6 µM (inactive)
PC-3
  GI50: 66.7 µM (inactive)
NCI-H522
  GI50: 33.7 µM (inactive)
MOLT-4
  GI50: 4.25 µM (inactive)
SNB-75
  GI50: 19.1 µM (inactive)
TK-10
  GI50: > 100 µM (inactive)
HL-60
  GI50: 30.1 µM (inactive)
SN12C
  GI50: 64 µM (inactive)
